Measured values: patent US9403843B2, “Cysteine protease inhibitors and uses thereof” (The Trustees of Columbia University in the City of New York, priority 2012, dated 2016)
Read-outs that look alike come from different tables or passages of the source.

Assays:
Aβ40 and Aβ42 [1] = experiment: Effect on Aβ levels in APP/PS1 mice; assay type: in vivo; conditions: compound-treated vs vehicle-treated APP/PS1 transgenics
Excerpt: Increase of brain and plasma levels of Aβ and appearance of amyloid plaques is an important feature of AD.

APP/PS1 mice [2] = experiment: LTP in APP/PS1 mice after daily treatment; assay type: in vivo; conditions: daily treatment from 2 until 3 months
Experimental: P<0.05 in transgenics treated with compound compared to their respective vehicle-treated transgenics.
(§1) The ability of a prodrug to rescue the defects in associative and reference memory in 3 month old APP/PS1 animals was assessed. […] Thus, the esterification seems to improve PK but it spoils PD parameters. Compound 89 ameliorates both LTP and memory in 3 month old APP/PS1 mice (FIG. 15). Daily treatment with 89 from the age of 2 months until 3 months ameliorated the defect in LTP (A) contextual fear memory (B) and reference memory (C) in APP/PS1 mice. n=10 for all groups. P<0.05 in transgenics treated with compound compared to their respective vehicle-treated transgenics.

APP/PS1 mice [3] = experiment: Behavioral rescue assays (contextual fear memory, 2-day RAWM reference memory); assay type: in vivo; conditions: 3 month old APP/PS1 mice
Excerpt: APP/PS1-vehicle: n=15; APP/PS1-67: n=6; APP/PS1-30a: n=10; WT-vehicle: n=15; WT-67=5; WT-30a: n=8, APP/PS1-33: n=11; WT-33: n=8, APP/PS1-50: n=10; WT-50: n=8. P<0.05 in all transgenic groups treated with compound compared to their respective vehicle-treated transgenics.
APP/PS1-vehicle: n=17; APP/PS1-67: n=9; APP/PS1-30a: n=10; WT-vehicle: n=18; WT-67=9; WT-30a: n=9, APP/PS1-33: n=10; WT-33: n=9, APP/PS1-50: n=11; WT-50: n=9.
The ability of compounds to rescue the defects in associative and reference memory in 3 month old APP/PS1 animals was assessed. Capability of ameliorating the defects in contextual fear memory was tested via i.p. administration (FIG. 12). In the 2-day RAWM test, daily injections of the 67, 30a, 33 and 50 from the 2nd month of age were beneficial against the loss of contextual fear memory and reference memory.
Impact of chronic treatment on against memory loss in older APP/PS1 mice (7 months of age) with a more severe plaque load was also investigated. Compounds 67, 33 and 50 were beneficial against memory impairment following chronic administration (FIG. 13).
as §1

Aβ40 and Aβ42 [4] = conditions: earlier observation; cited from earlier work
Cal I = experiment: Relative selectivity for Cal I (E64 = 1.0), Table 2; assay type: biochemical; conditions: relative to E64 = 1.0
Cal1cat = Cal1cat (Rattus norvegicus (Rat), UniProt P97571); experiment: LC-MS/MS examination of inhibitor modified Cal1cat active site; assay type: binding; conditions: for modification of the active site cysteine of Cal1cat: Cal1cat 1 μM, varying inhibitor concentration
Experimental: (FIG. 3A) After capping of free cysteines with iodoacetamide (IAA) and in gel digest, peptide fragments were analyzed by LC-MS/MS. (FIG. 3B) Total ion chromatograms (TIC) for the incubation of recombinant Cal1cat (5 μM) in the absence or presence of inhibitors (10 μM). A non-active site and IAA-capped peptide fragment (Rt=41.3 min) was used as an internal standard for EIC quantitation. (FIG. 3C) Active site Cys modification of Cal1cat was concentration dependent in incubation containing Cal1cat (1 μM) and vary concentrations of inhibitors.
Inhibition kinetics and x-ray crystallography support a mechanism of calpain inhibition by E-64, resulting from covalent modification of the active site Cys (Suzuki, K. et al., FEBS Letters 1983, 152, 67-70; herein incorporated by reference in its entirety). LC-MS/MS was used to support a similar mechanism for 24a. The experimental methodology is outlined in FIG. 3A. Cal1cat (5 μM) was incubated with the appropriate inhibitor (10 μM) for 30 min. The mixture was quenched with EDTA (10 μM), and run on a SDS PAGE gel. Band excision, in-gel capping office cysteines with iodoacetamide (IAA, […]), tryptic digest, and subsequent LC-MS/MS analysis afforded the chromatograms shown in FIG. 3B. […] A peptide fragment containing an IAA labeled non-active site cysteine was used as an internal standard for semi-quantitative EIC analysis of the degree of active site modification observed (FIG. 3B). It is noteworthy that although Cal1cat was employed in these studies, analysis of full length Cal1 gave an identical active site peptide fragment (TIC of control digest from Cal1cat and full length Cal1 are compared in Example 10).
The reaction was quenched with EDTA (10 μM) and reaction mixture ran on a SDS PAGE gel. The Cal1cat containing band was cut from the gel and submitted to in-gel alkylation with IAA (100 mM) for 60 min, followed by trypsin digestion. LC-MS/MS was carried out on an Agilent 6300 Ion-Trap LC/MS. […] The resulting TIC and EIC were analyzed for anticipated m/z modified peptide fragments.

full-length human Cal1 [5] = target: T1, full-length human Cal1 (Homo sapiens (Human), UniProt P07384); experiment: Calpain inhibition FRET assay; assay type: biochemical; conditions: Table 3, 20 min incubation, FRET substrate
[6] = target: Full length porcine calpain (Sus scrofa (Pig), UniProt P35750); experiment: Calpain inhibition kinetics studies (Suc-LLVY-AMC substrate); assay type: biochemical; conditions: for Ki: apparent equilibrium constant, read-out: K1 Calpain1; for Ki / ki Calpain1: full length Cal1; for ki Calpain1: inhibition rate; for rel Calpain1: ki/Ki calculated relative to E-64
Excerpt: (§2) Papain is representative of a family of typically lysosomal or secreted cysteine proteases, including the human cathepsins (B, C, F, H, K, L1-2, O, S, W, Z). […] Several methods have been reported in the literature for detailed kinetic analysis of the irreversible inhibition of cysteine proteases, including Cal1. […] (SEQ ID NO: 8). Using this substrate, kinetic parameters were derived using the method of Davies and co-workers, whereby “progress curves” were initially obtained measuring product formation as a function of time and fitted to y=P∞*(1−e^(−k*x)) (FIG. 7) (Cuerrier, D. et al., J Biol Chem 2007, 282, 9600-11; herein incorporated by reference in its entirety). […] Kinetic parameters (ki, KI, ki/KI) were obtained from double reciprocal plots (FIG. 7).
(§3) Full length porcine calpain (156 nM), or papain (236 pM) was added to a solution of 100 mM NaCl, 50 mM HEPES, pH 7.6, 1 mM TCEP, 30 μM Suc-LLVY-AMC (SEQ ID NO: 8) substrate, and inhibitor (0.5 to 50 μM). Calpain reactions also contained CaCl2 (1 mM and 100 mM for porcine and rat respectively). Both substrate and inhibitors were dissolved in acetonitrile/DMSO (1:1) with the exception of E-64, dissolved in water. Organic solvent remained <2% in all reactions, and most often <1%. Reactions were carried out in microtiter 96-well plates, with 150 μL per well, 30° C., and product formation was monitored over time by fluorescence (Ex/Em 346/444 nm, with 420 nm cutoff filter). Kinetic values of kobs were determined via non-linear regression using one-phase association analysis and linear plots of 1/kobs vs. 1/[I] provided kinetic constants ki and KI.

Cal1cat vs CathB = experiment: Competition assay for Cal1 vs CathB using the biotinylated epoxide probe; assay type: binding, rat; conditions: for blocking of active site modification by probe 27 (western blot signal): 10 min pre-treatment, then 20 min with 27
Experimental: Anti-biotin western blotting of Cal1cat (Lane 6) or CathB (Lane 7) after incubation with 27 show the expected immunoreactivity of the covalently modified proteins. […] Densitometric analysis, using means from triplicate immunoblots, was used to estimate the modification of each protein by 27 in the presence of inhibitors relative to control (Lane 1: ratio=1.0).
Cal1cat was used in place of the full length enzyme to avoid autocatalysis.
Cal1cat and CathB were pre-treated with inhibitors for 10 min, followed by a 20 min incubation with the biotinylated epoxide, 27, as illustrated in FIG. 4. […] A more quantitative estimate of selectivity was achieved by comparison of band intensities.
The appropriate inhibitor (5 μM) was pre-incubated in a mixture containing Cal1cat (2 μM), CathB (2 μM), TCEP (1 mM), and Ca^2+ (30 μM) for 10 min at 37° C. […] (5 μM) was then added and the mixture incubated an additional 20 min. The reaction was quenched with EDTA (10 μM) and samples were ran using 4-16% SDS PAGE gel, subsequently transferred to PVDF membrane and visualized by Pierce ECL (Enhanced chemiluminescent) western blotting substrate, intensity of each blot was calculated using densitometry software. Relative inhibition of each enzyme was calculated with respect to enzyme activity in the absence of inhibitor. Inhibitor preference to Cal1cat with respect to CathB, was calculated by dividing relative Cal1cat inhibition with relative CathB inhibition of that particular inhibitor.

papain = papain (Carica papaya (Papaya), UniProt P00784); experiment: biochemical; assay type: biochemical; conditions: for ki Papain: inhibition rate; for rel Papain: ki/Ki calculated relative to E-64
Excerpt: as §2, §3

[7] = test system: Aβ-induced LTP impairment; experiment: LTP rescue test; conditions: LTP rescue, benchmark
Experimental: Residual levels of potentiation were averaged during the last 5 min of LTP.

primary neurons = experiment: LD50 in primary neurons; assay type: cell-based; conditions: YES = LD50 ≧ 50 μM in primary neurons
full-length human Cal1 [8] = target: T1, full-length human Cal1; experiment: Calpain inhibition FRET assay; assay type: biochemical; conditions: Table 2; approximate IC50; read-out: Cal I IC50
[9] = mean ± S.D. of triplicate experiments

Chain of papain (P00784 134-345): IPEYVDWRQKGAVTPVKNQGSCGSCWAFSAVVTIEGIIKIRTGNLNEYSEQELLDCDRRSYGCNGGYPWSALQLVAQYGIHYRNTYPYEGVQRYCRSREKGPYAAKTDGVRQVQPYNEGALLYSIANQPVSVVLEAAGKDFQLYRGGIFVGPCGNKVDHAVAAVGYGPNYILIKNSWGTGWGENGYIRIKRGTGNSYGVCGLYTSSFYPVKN
Chain of Full length porcine calpain (P35750 whole entry): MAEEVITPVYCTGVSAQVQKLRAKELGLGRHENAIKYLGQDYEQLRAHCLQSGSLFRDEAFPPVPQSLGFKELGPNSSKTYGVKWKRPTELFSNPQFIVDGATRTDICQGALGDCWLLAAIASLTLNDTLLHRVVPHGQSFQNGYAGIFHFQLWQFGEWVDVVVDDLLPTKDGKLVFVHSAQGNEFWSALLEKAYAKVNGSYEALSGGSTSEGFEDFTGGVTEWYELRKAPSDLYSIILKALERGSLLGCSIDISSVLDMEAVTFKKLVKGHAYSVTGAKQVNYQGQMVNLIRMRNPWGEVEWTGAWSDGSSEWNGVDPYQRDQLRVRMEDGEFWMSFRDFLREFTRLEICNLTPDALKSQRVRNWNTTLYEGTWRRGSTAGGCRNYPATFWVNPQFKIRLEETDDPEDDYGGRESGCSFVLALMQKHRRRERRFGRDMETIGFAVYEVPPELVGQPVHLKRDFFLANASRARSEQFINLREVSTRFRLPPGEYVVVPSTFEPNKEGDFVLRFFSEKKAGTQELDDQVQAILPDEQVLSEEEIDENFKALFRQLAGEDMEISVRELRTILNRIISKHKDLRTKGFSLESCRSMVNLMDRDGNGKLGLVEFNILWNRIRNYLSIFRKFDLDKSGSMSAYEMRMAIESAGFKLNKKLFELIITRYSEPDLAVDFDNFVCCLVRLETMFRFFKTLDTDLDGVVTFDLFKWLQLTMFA
Chain of Full length porcine calpain (P04574 whole entry partner): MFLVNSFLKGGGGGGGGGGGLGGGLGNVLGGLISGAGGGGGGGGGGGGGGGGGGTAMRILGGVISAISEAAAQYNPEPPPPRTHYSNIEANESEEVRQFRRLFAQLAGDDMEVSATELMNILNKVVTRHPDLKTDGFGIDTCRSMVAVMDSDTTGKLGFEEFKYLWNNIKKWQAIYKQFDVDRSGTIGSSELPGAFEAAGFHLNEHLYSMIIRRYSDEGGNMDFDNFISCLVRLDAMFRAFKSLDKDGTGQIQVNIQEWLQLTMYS
Chain of Cal1cat (P97571 other isoform, or with tags, fused parts or gaps): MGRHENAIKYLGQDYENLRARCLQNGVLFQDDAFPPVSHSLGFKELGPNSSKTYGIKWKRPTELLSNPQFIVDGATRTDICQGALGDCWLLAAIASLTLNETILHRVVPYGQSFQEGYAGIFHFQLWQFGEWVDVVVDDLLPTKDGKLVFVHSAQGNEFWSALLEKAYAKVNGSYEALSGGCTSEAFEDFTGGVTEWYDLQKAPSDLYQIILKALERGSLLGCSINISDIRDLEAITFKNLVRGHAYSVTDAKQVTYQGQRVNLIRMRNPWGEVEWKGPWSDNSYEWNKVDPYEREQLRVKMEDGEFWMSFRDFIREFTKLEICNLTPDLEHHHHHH
T1 sequence (P07384 whole entry): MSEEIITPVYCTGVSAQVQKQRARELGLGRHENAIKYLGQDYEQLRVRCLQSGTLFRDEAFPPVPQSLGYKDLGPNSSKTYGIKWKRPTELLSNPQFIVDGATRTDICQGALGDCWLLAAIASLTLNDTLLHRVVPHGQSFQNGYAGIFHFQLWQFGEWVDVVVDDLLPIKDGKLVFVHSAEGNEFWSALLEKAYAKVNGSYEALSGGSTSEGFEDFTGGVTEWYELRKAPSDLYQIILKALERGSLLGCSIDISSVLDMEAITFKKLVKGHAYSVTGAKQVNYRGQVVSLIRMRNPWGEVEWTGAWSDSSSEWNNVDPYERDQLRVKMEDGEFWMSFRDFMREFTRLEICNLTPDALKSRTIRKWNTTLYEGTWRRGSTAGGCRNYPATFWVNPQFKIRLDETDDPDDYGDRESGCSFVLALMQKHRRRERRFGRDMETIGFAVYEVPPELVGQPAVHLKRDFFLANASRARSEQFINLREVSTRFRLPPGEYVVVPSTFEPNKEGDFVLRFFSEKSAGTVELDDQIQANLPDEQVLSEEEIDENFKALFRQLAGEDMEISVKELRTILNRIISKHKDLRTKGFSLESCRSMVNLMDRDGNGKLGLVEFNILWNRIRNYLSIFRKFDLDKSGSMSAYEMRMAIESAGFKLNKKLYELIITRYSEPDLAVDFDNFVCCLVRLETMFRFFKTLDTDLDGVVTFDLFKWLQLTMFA
T1 sequence (P04632 whole entry partner): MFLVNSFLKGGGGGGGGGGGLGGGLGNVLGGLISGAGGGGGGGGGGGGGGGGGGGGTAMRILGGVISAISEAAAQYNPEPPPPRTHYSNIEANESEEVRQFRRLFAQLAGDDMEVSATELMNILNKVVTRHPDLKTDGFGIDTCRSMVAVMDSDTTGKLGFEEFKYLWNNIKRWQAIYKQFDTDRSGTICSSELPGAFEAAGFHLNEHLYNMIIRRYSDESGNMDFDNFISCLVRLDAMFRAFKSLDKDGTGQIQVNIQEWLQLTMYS

| SMILES | Aβ levels and plaque load (Aβ40 and Aβ42 [4]) | modification of the active site cysteine of Cal1cat (Cal1cat) | Ki [6] | ki Calpain1 [6] | rel Calpain1 [6] | blocking of active site modification by probe 27 (western blot signal) (Cal1cat vs CathB) | ki Papain (papain) | rel Papain (papain) | also measured |
| --- | --- | --- | --- | --- | --- | --- | --- | --- | --- |
| CCOC(=O)[C@@H]1O[C@H]1C(=O)N[C@@H](Cc1cscn1)C(=O)Nc1nc(-c2ccc(F)cc2)cs1 [Compound 89] | – | – | – | – | – | – | – | – | Aβ40 and Aβ42 levels in hippocampi (Aβ40 and Aβ42 [1]): no difference was detected; defect in LTP (APP/PS1 mice [2]): ameliorated; reference memory (APP/PS1 mice [3]; 2-day RAWM, daily from 2 months): ameliorated; contextual fear memory (APP/PS1 mice [3]; daily i.p. from 2 months): ameliorated |
| CC(C)C[C@H](NS(=O)(=O)c1ccccc1)C(=O)N[C@@H](C(C)C)[C@@H](O)c1c(-c2ccccc2)c1=O [BDA-410] | do not have any effect | – | – | – | – | – | – | – | – |
| CC(C)C[C@H](NC(=O)C1O[C@@H]1C(=O)O)C(=O)NCCCCNC(=N)N (stereo partly drawn) [Compound E64, L-trans-epoxysuccinyl-leucylamido(4-guanidino)butane, reference compound] | do not have any effect | concentration dependent modification | 4 µM | 0.12 s⁻¹ | 1 | substantial loss of signal | 28.6 s⁻¹ | 1 | Relative selectivity for Cal I E64 = 1.0 (Cal I): 1.0; IC50 (full-length human Cal1 [5]): 0.1 µM; Relative Selectivity ([6]; Cal1 over papain, ki/Ki relative to E-64 set at 1.0): 1; 10^−4 × ki/Ki Calpain1 [6, 9]: 3.02 ± 0.15; selectivity for Cal1cat (ratio of Cal1cat versus CathB band intensities) (Cal1cat vs CathB; ratio for probe 27 alone set as 1.0, inhibitor 5 μM): 1.5; Ki (papain): 5.1 µM; 10^−5 × ki/Ki Papain (papain; [9]): 56.3 ± 5.2; ED50 [7]: 0.65 µM; LD50 ≧ 50 μM primary neurons (primary neurons): YES; IC50 (full-length human Cal1 [8]): 0.1 µM |
| CC(C)C[C@H](NC(=O)[C@H]1O[C@@H]1C(=O)O)C(=O)Nc1nc(-c2ccc(F)cc2)cs1 [Compound 24a, (2S,3S)-3-((S)-1-(4-(4-fluorophenyl)thiazol-2-ylamino)-4-methyl-1-oxopentan-2-ylcarbamoyl)oxirane-2-carboxylic acid] | – | concentration dependent modification | 6 µM | 0.16 s⁻¹ | 0.91 | substantially reduced signals from both enzymes | 17.1 s⁻¹ | 1.9 | active site modification on co-incubation of E-64 and 24a (EIC peak areas) (Cal1cat; Cal1cat with E-64 and 24a, both 1 μM): greater modification; Ki (papain; apparent equilibrium constant, read-out: K1 Papain): 1.6 µM |
